Reference: patent publication US10196386B2, “Compounds having muscarinic receptor antagonist and beta2 adrenergic receptor agonist activity” (priority 2016, dated 2019)

How the values were obtained:
Human β2 adrenoceptor = target: T1, Human β2 adrenoceptor (Homo sapiens, UniProt P07550); assay: β2 adrenoceptor radioligand binding assay
T1 construct: purchased Perkin Elmer
Outline: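 Human β2 receptor membranes incubated 1 h at room temperature with 0.3 nM [125I]cyanopindolol and compound in pH 7.4 HEPES buffer (0.5% DMSO); 2 μM s-propranolol defined non-specific binding. Bound label counted after filtration; IC50 from competition curves, converted to Ki via Cheng–Prusoff.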

Human M3 receptor = target: T2, Human M3 receptor (Homo sapiens, UniProt P20309); assay: biochemical; assay type: binding; conditions: read-out: M3 Range
T2 construct: purchased Perkin Elmer
T2 sequence (P20309 whole entry): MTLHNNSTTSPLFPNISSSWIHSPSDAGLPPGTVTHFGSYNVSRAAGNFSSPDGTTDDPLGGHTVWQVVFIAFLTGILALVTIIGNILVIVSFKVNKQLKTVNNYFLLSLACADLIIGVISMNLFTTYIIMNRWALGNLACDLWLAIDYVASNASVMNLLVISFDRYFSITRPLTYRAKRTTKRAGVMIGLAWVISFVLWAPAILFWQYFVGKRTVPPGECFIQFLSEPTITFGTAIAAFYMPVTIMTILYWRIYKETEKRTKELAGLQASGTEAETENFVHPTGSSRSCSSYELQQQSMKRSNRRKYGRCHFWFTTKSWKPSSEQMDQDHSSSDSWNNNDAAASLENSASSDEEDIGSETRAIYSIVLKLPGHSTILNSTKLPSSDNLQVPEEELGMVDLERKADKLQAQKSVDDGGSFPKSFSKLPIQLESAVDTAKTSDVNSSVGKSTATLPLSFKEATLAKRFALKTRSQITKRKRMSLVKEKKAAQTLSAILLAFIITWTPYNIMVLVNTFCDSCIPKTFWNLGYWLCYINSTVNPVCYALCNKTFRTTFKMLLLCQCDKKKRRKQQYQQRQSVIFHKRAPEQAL

T1 sequence (P07550 whole entry): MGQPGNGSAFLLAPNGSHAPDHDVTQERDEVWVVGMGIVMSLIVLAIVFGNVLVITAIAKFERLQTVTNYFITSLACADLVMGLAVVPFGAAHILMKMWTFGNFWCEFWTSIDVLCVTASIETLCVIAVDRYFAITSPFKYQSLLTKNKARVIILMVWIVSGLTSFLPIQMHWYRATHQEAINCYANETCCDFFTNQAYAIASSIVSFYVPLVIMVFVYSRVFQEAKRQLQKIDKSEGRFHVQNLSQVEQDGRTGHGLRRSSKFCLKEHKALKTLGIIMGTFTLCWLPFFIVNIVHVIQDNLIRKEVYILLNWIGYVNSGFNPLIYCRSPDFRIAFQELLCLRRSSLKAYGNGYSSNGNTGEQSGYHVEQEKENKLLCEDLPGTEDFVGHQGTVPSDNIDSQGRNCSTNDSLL

Compound	IC50 (Human β2 adrenoceptor)	IC50 (Human M3 receptor)
COc1cc(C(=O)N2CC=C(c3cccc([C@](O)(C(=O)OCC4CCN(Cc5ccccc5)CC4)c4ccccc4)c3)C2)ccc1CNC[C@H](O)c1ccc(O)c2[nH]c(=O)ccc12 [Compound 3J, (1-Benzylpiperidin-4-yl)methyl (S)-2-hydroxy-2-(3-(1-(4-((((R)-2-hydroxy-2-(8-hydroxy-2-oxo-1,2-dihydroquinolin-5-yl)ethyl)amino)methyl)-3-methoxybenzoyl)-2,5-dihydro-1H-pyrrol-3-yl)phenyl)-2-phenylacetate]	< 0.3 nM	< 0.3 nM
O=C(NCc1ncc(-c2cccc([C@](O)(C(=O)OCC3CCN(Cc4ccccc4)CC3)c3ccccc3)c2)cn1)c1ccc(CNC[C@H](O)c2ccc(O)c3[nH]c(=O)ccc23)cc1 [Compound 4, (1-Benzylpiperidin-4-yl)methyl (S)-2-hydroxy-2-(3-(2-((4-((((R)-2-hydroxy-2-(8-hydroxy-2-oxo-1,2-dihydroquinolin-5-yl)ethyl)amino)methyl)benzamido)-methyl)pyrimidin-5-yl)phenyl)-2-phenylacetate]	0.3 to 3 nM	0.3 to 3 nM
COc1cc(C(=O)NCc2ccnc(-c3cccc([C@](O)(C(=O)OCC4CCN(Cc5ccccc5)CC4)c4ccccc4)c3)n2)ccc1CNC[C@H](O)c1ccc(O)c2[nH]c(=O)ccc12 [Compound 4A, (1-Benzylpiperidin-4-yl)methyl (S)-2-hydroxy-2-(3-(4-((4-((((R)-2-hydroxy-2-(8-hydroxy-2-oxo-1,2-dihydroquinolin-5-yl)ethyl)amino)methyl)-3-methoxybenzamido)methyl)pyrimidin-2-yl)phenyl)-2-phenylacetate]	< 0.3 nM	0.3 to 3 nM
O=C(NCc1cnc(-c2cccc([C@](O)(C(=O)OCC3CCN(Cc4ccccc4)CC3)c3ccccc3)c2)cn1)c1ccc(CNC[C@H](O)c2ccc(O)c3[nH]c(=O)ccc23)cc1 [Compound 4B, (1-Benzylpiperidin-4-yl)methyl (S)-2-hydroxy-2-(3-(5-((4-((((R)-2-hydroxy-2-(8-hydroxy-2-oxo-1,2-dihydroquinolin-5-yl)ethyl)amino)methyl)-benzamido)methyl)pyrazin-2-yl)phenyl)-2-phenylacetate]	0.3 to 3 nM	< 0.3 nM
COc1cc(C(=O)NCc2ccc(-c3cccc([C@](O)(C(=O)OCC4CCN(Cc5ccccc5)CC4)c4ccccc4)c3)nn2)ccc1CNC[C@H](O)c1ccc(O)c2[nH]c(=O)ccc12 [Compound 4C, (1-Benzylpiperidin-4-yl)methyl (S)-2-hydroxy-2-(3-(6-((4-((((R)-2-hydroxy-2-(8-hydroxy-2-oxo-1,2-dihydroquinolin-5-yl)ethyl)amino)methyl)-3-methoxybenzamido)methyl)pyridazin-3-yl)phenyl)-2-phenylacetate]	< 0.3 nM	< 0.3 nM
O=C(NCc1ccnc(-c2cccc([C@](O)(C(=O)OCC3CCN(Cc4ccccc4)CC3)c3ccccc3)c2)n1)c1ccc(CNC[C@H](O)c2ccc(O)c3[nH]c(=O)ccc23)cc1 [Compound 4D, (1-Benzylpiperidin-4-yl)methyl (S)-2-hydroxy-2-(3-(4-((4-((((R)-2-hydroxy-2-(8-hydroxy-2-oxo-1,2-dihydroquinolin-5-yl)ethyl)amino)methyl)-benzamido)methyl)pyrimidin-2-yl)phenyl)-2-phenylacetate]	0.3 to 3 nM	0.3 to 3 nM
COc1cc(C(=O)NCc2ncc(-c3cccc([C@](O)(C(=O)OCC4CCN(Cc5ccccc5)CC4)c4ccccc4)c3)cn2)ccc1CNC[C@H](O)c1ccc(O)c2[nH]c(=O)ccc12 [Compound 4E, (1-Benzylpiperidin-4-yl)methyl (S)-2-hydroxy-2-(3-(2-((4-((((R)-2-hydroxy-2-(8-hydroxy-2-oxo-1,2-dihydroquinolin-5-yl)ethyl)amino)methyl)-3-methoxybenzamido)methyl)pyrimidin-5-yl)phenyl)-2-phenylacetate]	0.3 to 3 nM	0.3 to 3 nM
COc1cc(C(=O)NCc2nn(C)cc2-c2cccc([C@](O)(C(=O)OCC3CCN(Cc4ccccc4)CC3)c3ccccc3)c2)ccc1CNC[C@H](O)c1ccc(O)c2[nH]c(=O)ccc12 [Compound 4F, (1-Benzylpiperidin-4-yl)methyl (S)-2-hydroxy-2-(3-(3-((4-((((R)-2-hydroxy-2-(8-hydroxy-2-oxo-1,2-dihydroquinolin-5-yl)ethyl)amino)methyl)-3-methoxybenzamido)methyl)-1-methyl-1H-pyrazol-4-yl)phenyl)-2-phenylacetate]	0.3 to 3 nM	0.3 to 3 nM
COc1cc(C(=O)NCc2cncc(-c3cccc([C@](O)(C(=O)OCC4CCN(Cc5ccccc5)CC4)c4ccccc4)c3)n2)ccc1CNC[C@H](O)c1ccc(O)c2[nH]c(=O)ccc12 [Compound 4G, (1-Benzylpiperidin-4-yl)methyl (S)-2-hydroxy-2-(3-(6-((4-((((R)-2-hydroxy-2-(8-hydroxy-2-oxo-1,2-dihydroquinolin-5-yl)ethyl)amino)methyl)-3-methoxybenzamido)methyl)pyrazin-2-yl)phenyl)-2-phenylacetate]	< 0.3 nM	0.3 to 3 nM
COc1cc(C(=O)NCc2cnc(-c3cccc([C@](O)(C(=O)OCC4CCN(Cc5ccccc5)CC4)c4ccccc4)c3)cn2)ccc1CNC[C@H](O)c1ccc(O)c2[nH]c(=O)ccc12 [Compound 4H, (1-Benzylpiperidin-4-yl)methyl (S)-2-hydroxy-2-(3-(5-((4-((((R)-2-hydroxy-2-(8-hydroxy-2-oxo-1,2-dihydroquinolin-5-yl)ethyl)amino)methyl)-3-methoxybenzamido)methyl)pyrazin-2-yl)phenyl)-2-phenylacetate]	< 0.3 nM	0.3 to 3 nM
O=C(NCc1cc(-c2cccc([C@](O)(C(=O)OCC3CCN(Cc4ccccc4)CC3)c3ccccc3)c2)cs1)c1ccc(CNC[C@H](O)c2ccc(O)c3[nH]c(=O)ccc23)cc1 [Compound 5, (1-Benzylpiperidin-4-yl)methyl (S)-2-hydroxy-2-(3-(5-((4-((((R)-2-hydroxy-2-(8-hydroxy-2-oxo-1,2-dihydroquinolin-5-yl)ethyl)amino)methyl)benzamido)methyl)-thiophen-3-yl)phenyl)-2-phenylacetate]	< 0.3 nM	0.3 to 3 nM
O=C(NCc1csc(-c2cccc([C@](O)(C(=O)OCC3CCN(Cc4ccccc4)CC3)c3ccccc3)c2)c1)c1ccc(CNC[C@H](O)c2ccc(O)c3[nH]c(=O)ccc23)cc1 [Compound 5A, (1-Benzylpiperidin-4-yl)methyl (S)-2-hydroxy-2-(3-(4-((4-((((R)-2-hydroxy-2-(8-hydroxy-2-oxo-1,2-dihydroquinolin-5-yl)ethyl)amino)methyl)-benzamido)methyl)thiophen-2-yl)phenyl)-2-phenylacetate]	< 0.3 nM	0.3 to 3 nM
O=C(NCc1cnc(-c2cccc([C@](O)(C(=O)OCC3CCN(Cc4ccccc4)CC3)c3ccccc3)c2)s1)c1ccc(CNC[C@H](O)c2ccc(O)c3[nH]c(=O)ccc23)cc1 [Compound 5B, (1-Benzylpiperidin-4-yl)methyl (S)-2-hydroxy-2-(3-(5-((4-((((R)-2-hydroxy-2-(8-hydroxy-2-oxo-1,2-dihydroquinolin-5-yl)ethyl)amino)methyl)-benzamido)methyl)thiazol-2-yl)phenyl)-2-phenylacetate]	< 0.3 nM	0.3 to 3 nM
O=C(c1ccc(CNC[C@H](O)c2ccc(O)c3[nH]c(=O)ccc23)cc1)N1CCc2sc(-c3cccc([C@](O)(C(=O)OCC4CCN(Cc5ccccc5)CC4)c4ccccc4)c3)cc2C1 [Compound 5C, (1-Benzylpiperidin-4-yl)methyl (S)-2-hydroxy-2-(3-(5-(4-((((R)-2-hydroxy-2-(8-hydroxy-2-oxo-1,2-dihydroquinolin-5-yl)ethyl)amino)methyl)benzoyl)-4,5,6,7-tetrahydrothieno[3,2-c]pyridin-2-yl)phenyl)-2-phenylacetate]	< 0.3 nM	0.3 to 3 nM
O=C(NCCc1ccc(-c2cccc([C@](O)(C(=O)OCC3CCN(Cc4ccccc4)CC3)c3ccccc3)c2)s1)c1ccc(CNC[C@H](O)c2ccc(O)c3[nH]c(=O)ccc23)cc1 [Compound 5D, (1-Benzylpiperidin-4-yl)methyl (S)-2-hydroxy-2-(3-(5-(2-(4-((((R)-2-hydroxy-2-(8-hydroxy-2-oxo-1,2-dihydroquinolin-5-yl)ethyl)amino)methyl)-benzamido)ethyl)thiophen-2-yl)phenyl)-2-phenylacetate]	< 0.3 nM	0.3 to 3 nM
COc1cc(C(=O)NCc2nccnc2-c2cccc([C@](O)(C(=O)OCC3CCN(Cc4ccccc4)CC3)c3ccccc3)c2)ccc1CNC[C@H](O)c1ccc(O)c2[nH]c(=O)ccc12 [Compound 5E, (1-Benzylpiperidin-4-yl)methyl (S)-2-hydroxy-2-(3-(3-((4-((((R)-2-hydroxy-2-(8-hydroxy-2-oxo-1,2-dihydroquinolin-5-yl)ethyl)amino)methyl)-3-methoxybenzamido)methyl)pyrazin-2-yl)phenyl)-2-phenylacetate]	< 0.3 nM	0.3 to 3 nM
O=C(c1ccnc(-c2cccc([C@](O)(C(=O)OCC3CCN(Cc4ccccc4)CC3)c3ccccc3)c2)c1)N1CCC(CNC[C@H](O)c2ccc(O)c3[nH]c(=O)ccc23)CC1 [Compound 6, (1-Benzylpiperidin-4-yl)methyl (S)-2-hydroxy-2-(3-(4-(4-((((R)-2-hydroxy-2-(8-hydroxy-2-oxo-1,2-dihydroquinolin-5-yl)ethyl)amino)methyl)piperidine-1-carbonyl)pyridin-2-yl)phenyl)-2-phenylacetate]	< 0.3 nM	0.3 to 3 nM
O=C(c1cncc(-c2cccc([C@](O)(C(=O)OCC3CCN(Cc4ccccc4)CC3)c3ccccc3)c2)n1)N1CCC(CNC[C@H](O)c2ccc(O)c3[nH]c(=O)ccc23)CC1 [Compound 6A, (1-Benzylpiperidin-4-yl)methyl (S)-2-hydroxy-2-(3-(6-(4-((((R)-2-hydroxy-2-(8-hydroxy-2-oxo-1,2-dihydroquinolin-5-yl)ethyl)amino)methyl)piperidine-1-carbonyl)pyrazin-2-yl)phenyl)-2-phenylacetate]	0.3 to 3 nM	0.3 to 3 nM
